From patent publication US5436229A, “Bisulfite adducts of arginine aldehydes” (Eli Lilly and Company, priority 1994, dated 1995)

How the values were obtained:
[1] = system: human plasma; assay: Human plasma anticoagulation, activated partial thromboplastin time (APTT); format: biochemical
In short: (§1)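 Compounds added across a wide concentration range to human plasma; APTT, PT and TT clotting times measured on a coagulation instrument, bovine thrombin used for plasma assays. Concentration doubling clotting time estimated by linear extrapolation.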

[2] = molecular target: T1, Human plasmin (Homo sapiens, UniProt P00747); assay: Serine protease inhibition (Kass), plasmin; format: biochemical
T1 construct: Human plasmin is purchased from Boehringer Mannheim; purchased Boehringer Mannheim, Indianapolis, Ind
T1 sequence (P00747 581-810 limits assumed): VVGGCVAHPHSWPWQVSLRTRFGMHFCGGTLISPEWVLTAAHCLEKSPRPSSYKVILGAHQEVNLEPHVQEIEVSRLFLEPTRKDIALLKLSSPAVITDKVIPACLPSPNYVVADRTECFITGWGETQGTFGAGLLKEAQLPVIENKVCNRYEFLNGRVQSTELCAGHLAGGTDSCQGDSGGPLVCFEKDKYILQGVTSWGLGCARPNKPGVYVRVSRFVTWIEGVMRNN
T1 sequence (P00747 97-580 partner limits assumed): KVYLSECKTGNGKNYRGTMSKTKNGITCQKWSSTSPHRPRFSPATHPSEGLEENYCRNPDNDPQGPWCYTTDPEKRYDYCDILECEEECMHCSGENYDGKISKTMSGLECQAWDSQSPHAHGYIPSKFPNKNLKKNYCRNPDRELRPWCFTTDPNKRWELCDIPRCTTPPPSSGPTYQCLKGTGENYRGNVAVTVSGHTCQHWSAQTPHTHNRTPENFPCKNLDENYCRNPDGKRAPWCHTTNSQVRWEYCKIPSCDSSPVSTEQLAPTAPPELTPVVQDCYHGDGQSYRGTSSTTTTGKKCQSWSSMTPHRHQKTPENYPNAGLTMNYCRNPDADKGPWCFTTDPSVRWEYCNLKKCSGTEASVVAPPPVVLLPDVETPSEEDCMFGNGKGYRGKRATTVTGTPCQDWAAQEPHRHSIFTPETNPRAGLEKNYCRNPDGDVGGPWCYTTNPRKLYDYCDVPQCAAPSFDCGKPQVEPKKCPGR
In short: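 Chromogenic enzyme assays run as for human thrombin, giving association constants (Kass). Human plasmin used with H-D-Val-Leu-Lys-p-nitroanilide; t-PA (single-chain nt-PA or modified mt-PA6) with H-D-Ile-Pro-Arg-p-nitroanilide.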

[3] = molecular target: T2, factor Xa (Homo sapiens, UniProt P00742); assay: Serine protease inhibition (Kass), factor Xa; format: biochemical
T2 construct: Human factors X, Xa, IXa, XIa, and XIIa are purchased from Enzyme Research Laboratories; purchased Enzyme Research Laboratories, South Bend, Ind
T2 sequence (P00742 235-488 limits assumed): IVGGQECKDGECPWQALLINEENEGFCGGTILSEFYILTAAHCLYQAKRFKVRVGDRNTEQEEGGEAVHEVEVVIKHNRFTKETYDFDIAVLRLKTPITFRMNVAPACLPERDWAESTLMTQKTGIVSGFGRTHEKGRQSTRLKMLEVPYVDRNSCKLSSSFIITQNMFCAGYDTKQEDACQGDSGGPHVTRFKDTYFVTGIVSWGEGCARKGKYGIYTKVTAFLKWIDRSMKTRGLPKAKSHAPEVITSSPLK
T2 sequence (P00742 41-179 partner limits assumed): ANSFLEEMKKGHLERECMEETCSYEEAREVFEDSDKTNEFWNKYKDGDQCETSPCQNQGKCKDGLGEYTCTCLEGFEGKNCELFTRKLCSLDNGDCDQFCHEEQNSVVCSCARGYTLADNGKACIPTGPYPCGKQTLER
In short: (§2)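 Chromogenic p-nitroanilide substrate assays run as for human thrombin; trypsin with N-Benzoyl-Phe-Val-Arg-p-nitroanilide, human factor Xa with N-Benzoyl-Ile-Glu-Gly-Arg-p-nitroanilide. Values are association constants (Kass).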

[4] = system: human plasma; assay: Human plasma anticoagulation, prothrombin time (PT); format: biochemical
In short: as §1

[5] = molecular target: T3, tissue plasminogen activator (t-PA) (Homo sapiens, UniProt P00750); assay: Serine protease inhibition (Kass), t-PA; format: biochemical
T3 construct: purchased American Diagnostica, Greenwich, Conn
T3 sequence (P00750 36-562): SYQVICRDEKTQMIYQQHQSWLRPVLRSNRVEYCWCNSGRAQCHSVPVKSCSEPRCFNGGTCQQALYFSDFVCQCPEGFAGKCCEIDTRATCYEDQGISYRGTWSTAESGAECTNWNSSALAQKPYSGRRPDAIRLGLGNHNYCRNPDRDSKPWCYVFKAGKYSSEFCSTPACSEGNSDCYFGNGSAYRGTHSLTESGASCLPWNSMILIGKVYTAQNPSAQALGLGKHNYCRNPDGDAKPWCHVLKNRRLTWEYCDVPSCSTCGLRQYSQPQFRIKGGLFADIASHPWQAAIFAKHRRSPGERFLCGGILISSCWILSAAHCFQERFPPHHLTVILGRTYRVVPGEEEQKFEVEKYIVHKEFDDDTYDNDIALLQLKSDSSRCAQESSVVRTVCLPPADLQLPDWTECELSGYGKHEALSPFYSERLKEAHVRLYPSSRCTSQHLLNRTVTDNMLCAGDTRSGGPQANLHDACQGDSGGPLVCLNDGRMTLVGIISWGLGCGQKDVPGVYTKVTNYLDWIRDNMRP

[6] = system: human plasma; assay: Human plasma anticoagulation, thrombin time (TT); format: biochemical
In short: as §1

[7] = molecular target: human thrombin (Homo sapiens, UniProt P00734); assay: Thrombin amidase inhibition (Kass), chromogenic substrate; format: biochemical
In short: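 Purified human thrombin (8 NIH units/ml solution) mixed with compound in 50% aqueous methanol and 0.03M Tris, 0.15M NaCl, pH 7.4; chromogenic substrate (0.25 mg/ml solution) added, p-nitroaniline release followed at 405 nm. Free thrombin read from a standard curve; Kass (L/mol) is the mean over a range of compound concentrations.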

[8] = molecular target: T4, Bovine trypsin (Bos taurus, UniProt P00760); assay: Serine protease inhibition (Kass), trypsin; format: biochemical
T4 construct: Bovine trypsin is purchased from Worthington Biochemicals; purchased Worthington Biochemicals, Freehold, N.J
T4 sequence (P00760 24-246): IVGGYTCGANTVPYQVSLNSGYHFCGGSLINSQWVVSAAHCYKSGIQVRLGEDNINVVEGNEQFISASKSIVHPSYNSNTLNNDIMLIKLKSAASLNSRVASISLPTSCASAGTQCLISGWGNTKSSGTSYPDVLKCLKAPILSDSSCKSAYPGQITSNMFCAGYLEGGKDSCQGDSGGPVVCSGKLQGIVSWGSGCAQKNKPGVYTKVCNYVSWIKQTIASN
In short: as §2

[9] = Index of Bioavailability (plasma TT AUC, oral vs i.v.); format: in vivo; conditions: rats, oral vs i.v. bolus
Excerpt: Assays are done in duplicate and averaged.
Each sample population represents alternating sequential time points.

SMILES	Kass Plasmin [2] [L/mol × 10^6]	Kass Xa [3] [L/mol × 10^6]	Kass t-PA [5] [L/mol × 10^6]	Kass Human Thrombin [7]	Kass Trypsin [8] [L/mol × 10^6]	Percent Relative Activity (Index of Bioavailability) [9] [%]	inhibition at 13 µg/mL ([5]; at 13 μg/mL, read-out: inhib. of t-PA) [%]	2 × Clotting time APTT [1]	2 × Clotting time PT [4]	2 × Clotting time TT [6] [ng/mL]
Cl.Cn1c(C(=O)N[C@H](Cc2ccccc2)C(=O)N2CCC[C@H]2C(=O)N[C@H](C=O)CCCNC(=N)N)cc2ccccc21 [Example 45, N-(1-methylindolyl-2-carbonyl)-D-phenylalanyl-L-Prolinyl-L-Arginine Aldehyde Hydrochloride]	7.9	0.51	31	850 L/mol × 10^6	120	2		440 ng/mL	870 ng/mL	43
Cl.N=C(N)NCCC[C@@H](C=O)NC(=O)[C@@H]1CCCN1C(=O)[C@@H](Cc1ccccc1)NC(=O)c1cc2ccccc2cn1 [Example 46, N-(isoquinolinyl-2-carbonyl)-D-phenylalanyl-L-Prolinyl-L-Arginine Aldehyde Hydrochloride]	0.55	0.16	0.32	110 L/mol × 10^6	22	1		1,100 ng/mL	1,400 ng/mL	35
Cl.N=C(N)NCCC[C@@H](C=O)NC(=O)[C@@H]1CCCN1C(=O)[C@@H](Cc1ccccc1)NC(=O)c1cccnc1 [Example 47, N-(nicotinoyl)-D-phenylalanyl-L-Prolinyl-L-Arginine Aldehyde Hydrochloride]	0.41	0.080	0.17	58 L/mol × 10^6	12	3		1,300 ng/mL	1,700 ng/mL	47
CS(=O)(=O)N[C@H](Cc1ccccc1)C(=O)N1CCC[C@H]1C(=O)N[C@H](C=O)CCCNC(=N)N.Cl [Example 51, N-(methylsulfonyl)-D-phenylalanyl-L-Prolinyl-L-Arginine Aldehyde Hydrochloride]	17	2.4	13	690 L/mol × 10^6	220	27		330 ng/mL	530 ng/mL	21

Now from value to compound, other results behind:

Kass Plasmin [2] [L/mol × 10^6]	Kass Xa [3] [L/mol × 10^6]	Kass t-PA [5] [L/mol × 10^6]	Kass Human Thrombin [7]	Kass Trypsin [8] [L/mol × 10^6]	Percent Relative Activity (Index of Bioavailability) [9] [%]	inhibition at 13 µg/mL ([5]; at 13 μg/mL, read-out: inhib. of t-PA) [%]	SMILES	2 × Clotting time APTT [1]	2 × Clotting time PT [4]	2 × Clotting time TT [6] [ng/mL]
31	2.6	2.9	450 L/mol × 10^6	260	31		CCS(=O)(=O)N[C@H](Cc1ccccc1)C(=O)N1CCC[C@H]1C(=O)N[C@H](C=O)CCCNC(=N)N.Cl [Example 52, N-(ethylsulfonyl)-D-phenylalanyl-L-Prolinyl-L-Arginine Aldehyde Hydrochloride]	260 ng/mL	660 ng/mL	9
29	13	2.8	1,700 L/mol × 10^6	480	14		CCCS(=O)(=O)N[C@H](Cc1ccccc1)C(=O)N1CCC[C@H]1C(=O)N[C@H](C=O)CCCNC(=N)N.Cl [Example 53, N-(n-propylsulfonyl)-D-phenylalanyl-L-Prolinyl-L-Arginine Aldehyde Hydrochloride]	220 ng/mL	510 ng/mL	6
27	8.3	0.83	470 L/mol × 10^6	230	18		CCCCS(=O)(=O)N[C@H](Cc1ccccc1)C(=O)N1CCC[C@H]1C(=O)N[C@H](C=O)CCCNC(=N)N.Cl [Example 54, N-(n-butylsulfonyl)-D-phenylalanyl-L-Prolinyl-L-Arginine Aldehyde Hydrochloride]	300 ng/mL	700 ng/mL	18
25	6.0	3.5	460 L/mol × 10^6	260	10		CC(C)S(=O)(=O)N[C@H](Cc1ccccc1)C(=O)N1CCC[C@H]1C(=O)N[C@H](C=O)CCCNC(=N)N.Cl [Example 55, N-(isopropylsulfonyl)-D-phenylalanyl-L-Prolinyl-L-Arginine Aldehyde Hydrochloride]	270 ng/mL	510 ng/mL	13
21	3.9		300 L/mol × 10^6	160	26	100	CN(C)S(=O)(=O)N[C@H](Cc1ccccc1)C(=O)N1CCC[C@H]1C(=O)N[C@H](C=O)CCCNC(=N)N.Cl [Example 56, N-(dimethylaminosulfonyl)-D-phenylalanyl-L-Prolinyl-L-Arginine Aldehyde Hydrochloride]	360 ng/mL	480 ng/mL	46
19	3.6	2.3	270 L/mol × 10^6	180	3		Cl.N=C(N)NCCC[C@@H](C=O)NC(=O)[C@@H]1CCCN1C(=O)[C@@H](Cc1ccccc1)NS(=O)(=O)c1ccccc1 [Example 57, N-(phenylsulfonyl)-D-phenylalanyl-L-Prolinyl-L-Arginine Aldehyde Hydrochloride]	450 ng/mL	930 ng/mL	14
25	11	2.4	230 L/mol × 10^6	160	6		Cl.N=C(N)NCCC[C@@H](C=O)NC(=O)[C@@H]1CCCN1C(=O)[C@@H](Cc1ccccc1)NS(=O)(=O)c1ccc(F)cc1F [Example 58, N-(2,4-difluorophenylsulfonyl)-D-phenylalanyl-L-Prolinyl-L-Arginine Aldehyde Hydrochloride]	350 ng/mL	940 ng/mL	21
